Format in all cases: cell-based
For one series, the system named is MV4-11. The experiment in a line: MV4-11 cellular growth inhibition assay (CellTiter-Glo). To be noted: Homo sapiens, 168 h, MV4-11 cells, 7 days of incubation. Here is the method: (§1) HEK293 (Institute of Cytology Russian Academy of Science), MV4-11 (ATCC, CRL-9591), MOLM-13 (AcceGen, ABC-TC517S) were seeded at a density of 500 cells per well (HEK293) and 2000 cells per well (MV4-11, MOLM-13) in a 384-well clear bottom plate (Greiner Cat #781090) in 45 μl total volume of DMEM (PanEco, Cat #C420, Russia) or RPMI (PanEco, Cat #C330, Russia) with 10% FBS (HyClone Cat #SV30160.03). HEK293 were allowed to adhere overnight at 37° C., 5% CO2. 500× compounds solutions in DMSO (Sigma Cat #D2650) were prepared into Cmpnds plate (Diamond Well Plate, Axigen, Cat #P-384-120SQ-C-S) and DMSO only control was included. 1 μl of 500× compounds (Cmpnds plate) was added to 49 μl of culture medium into Dilution plate (Diamond Well Plate, Axigen, Cat #P-384-120SQ-C-S), mixed and then 5 μl of 10× compounds solutions were transferred to cells followed by centrifugation at 100 g for 1 min. Final DMSO concentration was 0.2%. After 3 days of incubation, 10 μl of 1× compounds were added to cells. After 7 days of incubation, 12 μl of CellTiter-Glo (Promega, CAT #G7572) were added to the cells, plate was centrifuged at 100 g for 1 min and luminescence signal was measured using Microplate Reader (CLARIOStar).
Background: Cellular ATP, detected with luciferase, serves as a proxy for viable cell number.

The next series relates to MOLM-13. The series is described as follows: MOLM-13 cellular growth inhibition assay (CellTiter-Glo). The following applies: Homo sapiens, 168 h, MOLM-13 cells, 7 days of incubation. Here is the method: as §1
Series [1] can be described thus: HEK293 cellular growth inhibition assay (CellTiter-Glo). The following applies: human, HEK293 cells, 7 days of incubation. On the procedure:
as §1

For orientation: CC50 means the concentration that lowers cell viability or growth by half. A higher CC50 goes with better tolerance by the cells. As for `Cc1c(CN2CCC3(CC2)CN(c2ncnc4ccc(CC(F)(F)F)cc24)C3)ccc2c1cc(C#N)n2C[C@H]1CC[C@H](NS(C)(=O)=O)CC1` [Compound 40, N-(trans-4-{[2-Cyano-4-methyl-5-({2-[6-(2,2,2-trifluoroethyl)quinazolin-4-yl]-2,7-diazaspiro[3.5]non-7-yl}methyl)-1H-indol-1-yl]methyl}cyclohexyl)methanesulfonamide], the CC50 in the series on MV4-11 lay within 100 to 500 nM; in the series on MOLM-13, 1000 to 5000 nM. Further, the CC50 at 7 days in series [1] fell in the range of 10000 to 20000 nM.
Taken in the same sequence, the figures for `C=CC(=O)N1CCN(CCCn2c(C#N)cc3c(C)c(CN4CCC5(CC4)CN(c4ncnc6ccc(CC(F)(F)F)cc46)C5)ccc32)CC1` [Compound 66, 4-methyl-1-[3-(4-prop-2-enoylpiperazin-1-yl)propyl]-5-[[2-[6-(2,2,2-trifluoroethyl)quinazolin-4-yl]-2,7-diazaspiro[3.5]nonan-7-yl]methyl]indole-2-carbonitrile] were 100 to 500 nM, 100 to 500 nM and 2000 to 5000 nM.
Take `Cc1c(CN2CCC3(CC2)CN(c2ncnc4ccc(CC(F)(F)F)cc24)C3)ccc2c1cc(C#N)n2CC1CCNC(=O)CO1` (centres unmarked) [Compound 2, 4-Methyl-1-[(3-oxo-1,4-oxazepan-7-yl)methyl]-5-[[2-[6-(2,2,2-trifluoroethyl)quinazolin-4-yl]-2,7-diazaspiro[3.5]nonan-7-yl]methyl]indole-2-carbonitrile]: the CC50 was 100 to 500 nM with MV4-11 and 1000 to 5000 nM with MOLM-13. The molecule also displayed a CC50 at 7 days in series [1] of 2000 to 5000 nM.
Take `CCS(=O)(=O)N1CCN([C@H](C)Cn2c(C#N)cc3c(C)c(CN4CCC5(CC4)CN(c4ncnc6ccc(CC(F)(F)F)cc46)C5)ccc32)C[C@@H]1C` [Compound 25, 1-[(2R)-2-[(3S)-4-ethylsulfonyl-3-methyl-piperazin-1-yl]propyl]-4-methyl-5-[[2-[6-(2,2,2-trifluoroethyl)quinazolin-4-yl]-2,7-diazaspiro[3.5]nonan-7-yl]methyl]indole-2-carbonitrile]: the 50% cytotoxic concentration (CC50) with MV4-11 is 100 to 500 nM; with MOLM-13, 500 to 1000 nM. In series [1], this molecule showed a cytotoxic concentration (CC50) at 7 days of 2000 to 5000 nM.
Taken in the same sequence, the figures for `Cc1c(CN2CCC3(CC2)CN(c2ncnc4ccc(CC(F)(F)F)cc24)C3)ccc2c1cc(C#N)n2C[C@@H](C)N1CCN(S(C)(=O)=O)[C@@H](C)C1` [Compound 27, 4-methyl-1-[(2R)-2-[(3S)-3-methyl-4-methylsulfonyl-piperazin-1-yl]propyl]-5-[[2-[6-(2,2,2-trifluoroethyl)quinazolin-4-yl]-2,7-diazaspiro[3.5]nonan-7-yl]methyl]indole-2-carbonitrile] were no more than 100 nM, 100 to 500 nM and 5000 to 10000 nM.
For `COc1cc2c(cc1CN1CCC3(CC1)CN(c1ncnc4ccc(CC(F)(F)F)cc14)C3)cc(C#N)n2CC(C)N1CCN(S(C)(=O)=O)CC1` (centres unmarked) [Compound 20, 6-Methoxy-1-{2-[4-(methylsulfonyl)piperazin-1-yl]propyl}-5-({2-[6-(2,2,2-trifluoroethyl)quinazolin-4-yl]-2,7-diazaspiro[3.5]non-7-yl}methyl)-1H-indole-2-carbonitrile] the same measures were 100 to 500 nM, 1000 to 5000 nM and 2000 to 5000 nM.
As for `Cc1c(CN2CCC3(CC2)CN(c2ncnc4ccc(CC(F)(F)F)cc24)C3)ccc2c1cc(C#N)n2C[C@@H]1CNC(=O)CO1` [Compound 102, 4-Methyl-1-{[(2S)-5-oxomorpholin-2-yl]methyl}-5-({2-[6-(2,2,2-trifluoroethyl)quinazolin-4-yl]-2,7-diazaspiro[3.5]non-7-yl}methyl)-1H-indole-2-carbonitrile], the half-maximal cytotoxic concentration (CC50) in the series with MV4-11 was no more than 100 nM; in the series on MOLM-13, 100 to 500 nM. In addition, in series [1], the CC50 at 7 days was no more than 2000 nM.
As to `Cc1c(CN2CCC3(CC2)CN(c2ncnc4ccc(CC(F)(F)F)cc24)C3)ccc2c1cc(C#N)n2CC(C)N1CCNC(=O)C1` (centres unmarked) [Compound 93, 4-Methyl-1-[2-(3-oxopiperazin-1-yl)propyl]-5-({2-[6-(2,2,2-trifluoroethyl)quinazolin-4-yl]-2,7-diazaspiro[3.5]non-7-yl}methyl)-1H-indole-2-carbonitrile], the 50% cytotoxic concentration (CC50) was no more than 100 nM in the series on MV4-11 and 500 to 1000 nM in the series on MOLM-13. In series [1], this molecule registered a half-maximal cytotoxic concentration (CC50) at 7 days of 2000 to 5000 nM.
For `Cc1c(CN2CCC3(CC2)CN(c2ncnc4ccc(CC(F)(F)F)cc24)C3)ccc2c1cc(C#N)n2CC1CNC(=O)C1` (centres unmarked) [Compound 51, 4-Methyl-1-[(5-oxopyrrolidin-3-yl)methyl]-5-({2-[6-(2,2,2-trifluoroethyl)quinazolin-4-yl]-2,7-diazaspiro[3.5]non-7-yl}methyl)-1H-indole-2-carbonitrile] the same measures were 100 to 500 nM, 1000 to 5000 nM and 2000 to 5000 nM.
For `Cc1c(CN2CCC3(CC2)CN(c2ncnc4ccc(CC(F)(F)F)cc24)C3)ccc2c1cc(C#N)n2CC12CC(NS(N)(=O)=O)(C1)C2` [Compound 61, 4-[7-[[2-cyano-4-methyl-1-[[3-(sulfamoylamino)-1-bicyclo[1.1.1]pentanyl]methyl]indol-5-yl]methyl]-2,7-diazaspiro[3.5]nonan-2-yl]-6-(2,2,2-trifluoroethyl)quinazoline] the same measures were no more than 100 nM, 100 to 500 nM and 5000 to 10000 nM.
Take `CNC(=O)NC12CC(Cn3c(C#N)cc4c(C)c(CN5CCC6(CC5)CN(c5ncnc7ccc(CC(F)(F)F)cc57)C6)ccc43)(C1)C2` [Compound 60, 1-[3-[[2-Cyano-4-methyl-5-[[2-[6-(2,2,2-trifluoroethyl)quinazolin-4-yl]-2,7-diazaspiro[3.5]nonan-7-yl]methyl]indol-1-yl]methyl]-1-bicyclo[1.1.1]pentanyl]-3-methyl-urea]: the CC50 in the series on MV4-11 and in the series on MOLM-13 was no more than 100 nM in each case. For the same molecule, the CC50 at 7 days in series [1] lay in the range of 2000 to 5000 nM.
As to `Cc1c(CN2CCC3(CC2)CN(c2ncnc4ccc(CC(F)(F)F)cc24)C3)ccc2c1cc(C#N)n2Cc1ccc(=O)[nH]c1` [Compound 14, 4-Methyl-1-[(6-oxo-1,6-dihydropyridin-3-yl)methyl]-5-({2-[6-(2,2,2-trifluoroethyl)quinazolin-4-yl]-2,7-diazaspiro[3.5]non-7-yl}methyl)-1H-indole-2-carbonitrile], the 50% cytotoxic concentration (CC50) in the series on MV4-11 and in the series with MOLM-13 was no more than 100 nM in each case. Moreover, in series [1], the half-maximal cytotoxic concentration (CC50) at 7 days was no more than 2000 nM.
Consider `Cc1c(CN2CCC3(CC2)CN(c2ncnc4ccc(CC(F)(F)F)cc24)C3)ccc2c1cc(C#N)n2CCN1CCOCC1` [Compound 97, 4-Methyl-1-(2-morpholin-4-ylethyl)-5-({2-[6-(2,2,2-trifluoroethyl)quinazolin-4-yl]-2,7-diazaspiro[3.5]non-7-yl}methyl)-1H-indole-2-carbonitrile], for which the half-maximal cytotoxic concentration (CC50) in the series with MV4-11 was 500 to 1000 nM; in the series with MOLM-13, 1000 to 5000 nM. Further, the CC50 at 7 days in series [1] was 2000 to 5000 nM.
Taken in the same sequence, the figures for `Cc1c(CN2CCC3(CC2)CN(c2ncnc4cnc(CC(F)(F)F)cc24)C3)ccc2c1cc(C#N)n2CC(C)N1CCN(S(C)(=O)=O)CC1` (centres unmarked) [Compound 45, 4-Methyl-1-{2-[4-(methylsulfonyl)piperazin-1-yl]propyl}-5-({2-[6-(2,2,2-trifluoroethyl)pyrido[3,4-d]pyrimidin-4-yl]-2,7-diazaspiro[3.5]non-7-yl}methyl)-1H-indole-2-carbonitrile] were 100 to 500 nM, 1000 to 5000 nM and 5000 to 10000 nM.
Taken in the same sequence, the figures for `Cc1c(CN2CCC3(CC2)CN(c2ncnc4ccc(CC(F)(F)F)nc24)C3)ccc2c1cc(C#N)n2CC(C)N1CCN(S(C)(=O)=O)CC1` (centres unmarked) [Compound 67, 4-Methyl-1-{2-[4-(methylsulfonyl)piperazin-1-yl]propyl}-5-({2-[6-(2,2,2-trifluoroethyl)pyrido[3,2-d]pyrimidin-4-yl]-2,7-diazaspiro[3.5]non-7-yl}methyl)-1H-indole-2-carbonitrile] were 100 to 500 nM, 100 to 500 nM and 5000 to 10000 nM.
Taken in the same sequence, the figures for `CCCCS(=O)(=O)N1CCCN(C(C)Cn2c(C#N)cc3c(C)c(CN4CCC5(CC4)CN(c4ncnc6ccc(CC(F)(F)F)cc46)C5)ccc32)CC1` (centres unmarked) [Compound 73, 1-{2-[4-(Butylsulfonyl)-1,4-diazepan-1-yl]propyl}-4-methyl-5-({2-[6-(2,2,2-trifluoroethyl)quinazolin-4-yl]-2,7-diazaspiro[3.5]non-7-yl}methyl)-1H-indole-2-carbonitrile] were no more than 100 nM, 500 to 1000 nM and greater than 20000 nM.
As to `Cc1c(CN2CCC3(CC2)CN(c2ncnc4ccc(CC(F)(F)F)cc24)C3)ccc2c1cc(C#N)n2CC1CNC(=O)NC1` [Compound 4, 4-Methyl-1-[(2-oxohexahydropyrimidin-5-yl)methyl]-5-[[2-[6-(2,2,2-trifluoroethyl)quinazolin-4-yl]-2,7-diazaspiro[3.5]nonan-7-yl]methyl]indole-2-carbonitrile], the CC50 lay within 100 to 500 nM in the series on MV4-11 and 500 to 1000 nM in the series with MOLM-13.
